Data from US20050054097A1, “EX-VIVO expansion of hematopoietic system cell populations in mononuclear cell cultures” (priority 2002, published 2005).

Legend:
[1] = test system: cord blood mononuclear cells (MNC); experiment: FACS analysis of reselected CD34+ cell subsets (CD34+CD38-, CD34+Lin-) from MNC cultures; assay type: cell-based, human; conditions: for CD34+Lin- cells by FACS from reselected CD34+ cell fraction: MNC with RAR antagonists and cytokines; for cumulative number of CD34+CD38- cells: cytokines
Description: Surface antigen analysis: Cells were harvested, washed with a PBS solution containing 1% bovine sera albumin (BSA) and 0.1% sodium azide (Sigma), ind stained at 4° C. for 60 minutes with fluorescein isothiocyanate or phycoerythrin-conjugated antibodies (all from Immunoquality Products, the Netherlands). The cells were then washed with the same buffer and analyzed by FACS caliber or Facstarplus flow cytometers. Cells were passed at a rate of 1000 cells/second, using saline as the sheath fluid. A 488 nm argon laser beam served as the light source for excitation. Emission of ten thousand cells was measured using logarithmic amplification, and analyzed using CellQuest software.
Reselected CD34+ cell subsets were stained for the following combination of antigens: CD34PE/CD38FITC and CD34PE/38-, 33-, 14-, 15-, 3, 4, 61, 19 (Lin) FITC.
FACS analysis results are given as percentage values of cells. Absolute numbers of subsets are calculated from the absolute number of CD34+ cells.
Determination of baseline levels of CD34^+/CD38− and CD34^+/Lin^− cells was conducted as follows: CD34+ cells were purified from 3 thawed cord blood units and stained for the above markers. The mean of these experiments was considered as the baseline value.
(§1) Total cell counts, numbers of CD34+ cells and subsets, and CFU numbers are presented as cumulative numbers, with the assumption that the cultures had not been passaged; i.e., the number of cells per ml were multiplied by the number of passages performed.

[2] = test system: cord blood mononuclear cells (MNC); experiment: Ex-vivo expansion of CD34+ cells in mononuclear cell (MNC) cultures; CD34+ cells reselected and counted; assay type: cell-based, human; conditions: for cumulative number of CD34+ cells per culture bag: cytokines, eight weeks incubation; for Number of CD34+ cells (×10^4) / Portion of CD34+ cells (%): 8 weeks
[3] = test system: cord blood mononuclear cells (MNC); experiment: as above; assay type: cell-based, human; conditions: for cumulative number of CD34+ cells: MNC culture, cytokines, TEPA 5-10 μM for first three weeks
Description: Sample collection and processing: Samples were obtained from umbilical cord blood after a normal full-term delivery and were frozen within 24 hours pospartum. The blood cells were thawed in Dextran buffer and incubated for 15 hours in MEM (Biological Industries, Israel) supplemented with 10% fetal calf serum (FCS; Biological Industries). The cells were then layered on Ficoll-Hypaque (density 1.077 gram/ml; Sigma) and centrifuged at 400 g for 30 minutes at room temperature. The mononuclear cells in the interface layer were then collected, washed three times in phosphate-buffered saline (PBS; Biological Industries), and re-suspended in PBS containing 0.5% human serum albumin (HSA). The cells were then split into two fractions, the first being the mononuclear cells (MNC) fraction and the second fraction was used for purifying CD34^+ cells by immunomagnetic separation using the “MiniMACS CD34^+ progenitor cell isolation kit” (Miltenyi Biotec, Auburn, Calif.) according to the manufacturer's recommendations. The purity of the CD34^+ cells obtained ranged between 95% and 98%, based on Flow Cytometry evaluation.
Ex-vivo expansion of hematopoietic stem cells: The Mononuclear cells (MNC), obtained as described hereinabove, were plated in 24-well Costar Cell Clusters (Corning Inc., Corning, N. Y.) or seeded in Culture Bags (American Fluoroseal Corp.), with alpha minimal essential medium (a-MEM) supplemented with 10% fetal bovine serum (FBS, Biological Industries), at a concentration of about 10^6 cells/ml. […]
Determination of CD34+ cells and subsets: CD34+ surface expression on short and long-term cultures initiated either with purified CD34+ cells or the entire MNC fraction was determined as follows: CD34+ cells were positively reselected (Miltenyi kit) and counted. […]
Mononuclear cells (MNC) were seeded in culture bags and were provided with nutrients and cytokines (50 ng/ml FLt3, IL-6, TPO and SCF) as described above. […] The cultures were analyzed weekly during a 12-week period for the number of cells, CFUc, CD34+ and CD34+CD38− cells. […]

[4] = test system: cord blood mononuclear cells (MNC); experiment: Colony forming unit (CFU) ability of MNC cultures; assay type: cell-based, human; conditions: MNC culture, cytokines, TEPA 5-10 μM for first three weeks
Description: as §1
Assaying Colony Forming Unit (CFU) ability: Cells were cloned in semi-solid, methylcellulose-containing medium supplemented with 2 IU/ml erythropoietin (Eprex, Cilag AG Int., Switzerland), stem cell factor and IL-3, both at 20 ng/ml, and G-CSF and GM-CSF, both at 10 ng/ml (all from Perpo Tech). Cultures were incubated for 14 days at 37° C., 5% CO2 in a humidified atmosphere.
Determination of LTC-CFUc values: The ability of the cultures to maintain self-renewal was measured by determination of the content of colony forming unit cells in the long and extended long-term cultures (LTC-CFUc), as described in the references hereinabove.

[5] = test system: cord blood mononuclear cells (MNC); experiment: Morphological assessment of long-term MNC cultures (May-Grunwald/Giemsa); assay type: cell-based, human; conditions: long-term TEPA-treated MNC cultures
Description: Morphological assessment: Morphological characterization of the resulting culture populations was accomplished on aliquots of cells deposited on glass slides via cytospin (Cytocentrifuge, Shandon, Runcorn, UK). Cells were fixed, stained with May-Grunwald/Giemsa stain and examined microscopically.

[6] = test system: CD34+ cell cultures; conditions: early acting cytokines, 5-10 μM TEPA (b8), atomic absorption; cited from earlier work
[7] = cytokines + RAR antagonist 10^-6 M, 2 weeks
[8] = cytokines + RAR antagonist 10^-6 M, 5 weeks

With CCc1ccc(C2=CC(C)(C)Sc3ccc(C#Cc4ccc(C(=O)O)cc4)cc32)cc1 [RAR antagonist] the “CD34+Lin- cells by FACS from reselected CD34+ cell fraction” value ([1]; 2 weeks after initial seeding) was 78%, the “CD34+Lin- cells by FACS from reselected CD34+ cell fraction” value ([1]; 5 weeks after initial seeding) was 24% and the “% CD34/Lin-” value [1, 7] was 78.4%. The “No of CD34+/Lin- × 10^4” value [1, 7] was 132.5 × 10^4, the “% CD34/Lin-” value [1, 8] was 24.1% and the “No of CD34+/Lin- × 10^4*” value [1, 8] was 237.8 × 10^4. The “No of CD34 cells × 10^4” value [2, 7] was 169 × 10^4 and the “No of CD34 cells × 10^4*” value [2, 8] was 985 × 10^4.
For NCCNCCNCCNCCN [TEPA, tetraethylenepentamine], the “cumulative number of CD34+ cells” value ([3]; after 2 weeks) was “non-detectable”, the “cumulative number of CD34+ cells” value ([3]; after 12 weeks) was “over 8×10^7 cells/ml” and the “stem and progenitor cells densities versus pre-purified CD34+ cell cultures (not treated with TEPA)” value ([3]; TEPA-treated MNC cultures, 12-week period) was “either equalized or surpassed”. For the same compound, the “number of CD34+ CFUs” value ([4]; after 2 weeks) was “non-detectable”, the “number of CD34+ CFUs” value ([4]; after 10 weeks) was 3.2×10^7 cells/ml and the “morphological analysis of cells from long-term cultures” value [5] was “a high proportion of non-differentiated cells”. The “cumulative number of CD34+CD38- cells” value ([1]; MNC culture, TEPA 5-10 μM for first three weeks, after 2 weeks) was “non-detectable”, the “cumulative number of CD34+CD38- cells” value ([1]; MNC culture, TEPA 5-10 μM for first three weeks, after 12 weeks) was 2.5×10^7 cells/ml and the “reduction of cell copper content” value [6] was 30%.
For “tetraethylenepentamine-copper chelate [Cu-TEPA chelate]”, the “cumulative number of CD34+CD38- cells” value ([1]; 100 μM Copper-TEPA for first three weeks, eight weeks incubation) was 6.1×10^5, the “Number of CD34/38- cells (×10^4)” value ([1]; Cu-TEPA chelate 100 μM, 8 weeks) was 61 ×10^4 and the “cumulative number of CD34+ cells per culture bag” value ([2]; 50 μM Copper-TEPA for first three weeks) was 12.37×10^6 cells per culture bag. For the same compound, the “cumulative number of CD34+ cells per culture bag” value ([2]; 100 μM Copper-TEPA for first three weeks) was 32.85×10^6 cells per culture bag, the “Number of CD34+ cells (×10^4)” value ([2]; Cu-TEPA chelate 50 μM) was 1237.3 ×10^4 and the “Portion of CD34+ cells (%)” value ([2]; Cu-TEPA chelate 50 μM) was 1.4%. For the same compound, the “Number of CD34+ cells (×10^4)” value ([2]; Cu-TEPA chelate 100 μM) was 3285.3 ×10^4 and the “Portion of CD34+ cells (%)” value ([2]; Cu-TEPA chelate 100 μM) was 1.2%.
